The target in one test is T1, human RORγ (Homo sapiens, UniProt P51449).
T1 construct: human, NM_005060.3 and from Ser253 to Lys518; expressed in transfected cells; host or cells: CHO cells (transient co-transfection with pG5-Luc reporter)
T1 sequence (P51449 253-518): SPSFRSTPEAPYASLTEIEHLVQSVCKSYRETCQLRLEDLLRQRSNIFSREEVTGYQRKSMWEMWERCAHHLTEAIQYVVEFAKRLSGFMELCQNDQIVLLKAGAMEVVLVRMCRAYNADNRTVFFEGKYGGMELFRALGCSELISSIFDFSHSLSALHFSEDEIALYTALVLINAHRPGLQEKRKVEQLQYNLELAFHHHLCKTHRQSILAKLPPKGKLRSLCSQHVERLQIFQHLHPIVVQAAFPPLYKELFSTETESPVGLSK
Briefly: Luciferase reporter gene assay of inhibitory effect against RORγ transcriptional activity (GAL4-hRORγ plasmid in CHO cells). The test is classed as cell-based. (In general: A reporter such as luciferase makes a cellular process visible.)

A further test has as its target T2, mouse RORγ (Mus musculus, UniProt P51450).
T2 construct: mouse, NM_011281.2 and from Ile251 to Lys516; expressed in transfected cells; host or cells: CHO cells (transient co-transfection with pG5-Luc reporter)
T2 sequence (P51450 251-516): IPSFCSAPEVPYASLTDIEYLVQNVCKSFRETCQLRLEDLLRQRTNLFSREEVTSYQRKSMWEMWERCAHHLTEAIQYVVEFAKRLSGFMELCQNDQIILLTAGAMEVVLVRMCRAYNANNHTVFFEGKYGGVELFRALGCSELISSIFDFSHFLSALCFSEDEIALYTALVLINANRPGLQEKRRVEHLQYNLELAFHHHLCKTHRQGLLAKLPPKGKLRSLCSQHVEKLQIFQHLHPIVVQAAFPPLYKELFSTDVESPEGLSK
Briefly: Luciferase reporter gene assay of inhibitory effect against RORγ transcriptional activity (GAL4-mRORγ plasmid in CHO cells). It is filed as cell-based. The essentials:
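Readout is intracellular luciferase after 2-day compound exposure (8 concentrations, 0.1% DMSO) in CHO cells expressing GAL4 fused to mouse RORγ LBD residues Ile251–Lys516 plus pG5-Luc reporter. EC50 fitted from %-of-control; points showing resazurin-detected cytotoxicity dropped.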

Like-named read-outs stand apart in the source and are kept apart here.

In general, EC50 refers to the concentration at which the effect is half-maximal.

Turning to `Cc1ccc(NC(=O)C[C@H](CCC(=O)O)c2noc(-c3cc(C4(CC(C)C)CC4)on3)c2C2CC2)c(Cl)c1` [Example E-23], the EC50 on human RORγ (read-out: LUC EC50 (μM) hRORg) and on mouse RORγ (read-out: LUC EC50 (μM) mRORg) was < 3 µM each time.

With `CC(=O)N1C[C@H](C(=O)Nc2ccc(C)cc2C)[C@@H](c2nnc([C@H]3C[C@@H](OC(C)C)C3)n2C2CC2)C1` (racemic) [Example F-330], the EC50 at human RORγ (read-out: LUC EC50 (μM) hRORg) and at mouse RORγ (read-out: LUC EC50 (μM) mRORg) was > 3 µM in each case.

Regarding `Cc1c(Cl)cccc1NC(=O)CCc1nnc(CCN2CCCCC2)n1C1CC1` [Example F-169], the EC50 at human RORγ (read-out: LUC EC50 (μM) hRORg) and on mouse RORγ (read-out: LUC EC50 (μM) mRORg) was > 3 µM in each case.

For `Cc1c(Cl)cccc1CNC(=O)CCc1nnc(CCC(C)C)n1C1CC1` [Example F-123], the EC50 at human RORγ (read-out: LUC EC50 (μM) hRORg) and at mouse RORγ (read-out: LUC EC50 (μM) mRORg) was > 3 µM throughout.

As for `Cc1ccc(NC(=O)C[C@H](CC(C)C)c2noc(-c3cc(CC(C)C)on3)c2C2CC2)c(C)c1` [Example F-635], the EC50 on human RORγ (read-out: LUC EC50 hRORg) and on mouse RORγ (read-out: LUC EC50 mRORg) was < 3 µM throughout.

Turning to `Cc1ccc(NC(=O)CCc2nnc(C3CC(COC(C)C)C3)n2C2CC2)c(C)c1` (single isomer, unassigned) [Example F-478], the EC50 at human RORγ (read-out: LUC EC50 (μM) hRORg) was > 3 µM; on mouse RORγ (read-out: LUC EC50 (μM) mRORg), < 3 µM.

`Cc1c(Cl)cccc1NC(=O)CC(CCCOCc1ccccc1)c1nnc(CCC(C)C)n1C1CC1` (racemic) [Example F-195]: the EC50 at human RORγ (read-out: LUC EC50 (μM) hRORg) and at mouse RORγ (read-out: LUC EC50 (μM) mRORg) was < 3 µM in each case.

For `Cc1ccc(O)cc1NC(=O)CCc1nnc(CCC(C)C)n1C1CC1` [Example F-192], the EC50 at human RORγ (read-out: LUC EC50 (μM) hRORg) and on mouse RORγ (read-out: LUC EC50 (μM) mRORg) was > 3 µM throughout.

Consider `Cc1ccc(NC(=O)CCc2noc([C@H]3C[C@@H](CC(C)(C)C)C3)c2COCC(=O)O)c(Cl)c1` [Example F-704], for which the EC50 at human RORγ (read-out: LUC EC50 hRORg) and at mouse RORγ (read-out: LUC EC50 mRORg) was > 3 µM in each case.

As for `CC(=O)N1CC(c2noc([C@H]3C[C@@H](CC(C)(C)C)C3)c2C2CC2)[C@@H](C(=O)Nc2ccc(C)cc2Cl)C1` (stereo partly drawn) [Example F-686], the EC50 on human RORγ (read-out: LUC EC50 hRORg) and on mouse RORγ (read-out: LUC EC50 mRORg) was < 3 µM throughout.

In the case of `Cc1ccc(NC(=O)C[C@H](CC(=O)O)c2noc([C@H]3C[C@@H](CC(C)C)C3)c2C2CC2)cn1` [Example F-667], the EC50 is > 3 µM at human RORγ (read-out: LUC EC50 hRORg) and < 3 µM on mouse RORγ (read-out: LUC EC50 mRORg).

Take `CCn1c(C2Cc3ccccc3C2)nnc1[C@@H]1C[C@@H]1C(=O)Nc1cccc2ccccc12` (racemic) [Example F-27]: the EC50 on human RORγ (read-out: LUC EC50 (μM) hRORg) was > 3 µM; on mouse RORγ (read-out: LUC EC50 (μM) mRORg), < 3 µM.

With `CCn1c(CCC(=O)NC2CCCCC2)nnc1C1Cc2ccccc2C1` [Example F-21], the EC50 at human RORγ (read-out: LUC EC50 (μM) hRORg) and on mouse RORγ (read-out: LUC EC50 (μM) mRORg) was > 3 µM in each case.

In the case of `CC(=O)N1C[C@@H](C(=O)Nc2ccc(C)cc2C)[C@H](c2nnc(CCCC(C)(C)C)n2C2CC2)C1` [Example F-339], the EC50 at human RORγ (read-out: LUC EC50 (μM) hRORg) and on mouse RORγ (read-out: LUC EC50 (μM) mRORg) was > 3 µM each time.

For `CNC(=O)C(C)(C)C[C@H]1C[C@@H](c2onc([C@@H](CCC(=O)O)CC(=O)Nc3ccc(C)cc3Cl)c2C2CC2)C1` [Example F-728], the EC50 on human RORγ (read-out: LUC EC50 hRORg) and on mouse RORγ (read-out: LUC EC50 mRORg) was < 3 µM in each case.

On to `Cc1c(F)ccc(NC(=O)C[C@H](OCC(F)(F)F)c2nnc(-c3cc(CC(C)C)on3)n2C2CC2)c1C` [Example F-634], for which the EC50 at human RORγ (read-out: LUC EC50 hRORg) and on mouse RORγ (read-out: LUC EC50 mRORg) was < 3 µM throughout.

On to `Cc1ccc(NC(=O)C[C@H](CCc2nnn[nH]2)c2noc([C@H]3C[C@@H](CC(C)C)C3)c2C2CC2)c(C)c1` [Example F-644, (S)-3-[4-cyclopropyl-5-(3-isobutyl-cyclobutyl)-isoxazol-3-yl]-5-(1H-tetrazole-5-yl)-valeric acid (2,4-dimethyl-phenyl)-amide], for which the EC50 at human RORγ (read-out: LUC EC50 hRORg) and at mouse RORγ (read-out: LUC EC50 mRORg) was < 3 µM throughout.

Consider `COc1cc(C)ccc1CNC(=O)C[C@H](CCO)c1nnc([C@H]2C[C@@H](CC(C)C)C2)n1C1CC1` [Example F-535], for which the EC50 at human RORγ (read-out: LUC EC50 hRORg) and on mouse RORγ (read-out: LUC EC50 mRORg) was < 3 µM throughout.

With `COC(=O)C(C)(C)CCc1nnc(CCC(=O)Nc2cccc(Cl)c2C)n1C1CC1` [Example F-210], the EC50 on human RORγ (read-out: LUC EC50 (μM) hRORg) and at mouse RORγ (read-out: LUC EC50 (μM) mRORg) was < 3 µM throughout.

For `Cc1ccc(NC(=O)[C@H]2CN(C(=O)N3CCN(C)CC3)C[C@@H]2c2nnc([C@H]3C[C@@H](CC(C)C)C3)n2C2CC2)c(C)c1` [Example F-655], the EC50 at human RORγ (read-out: LUC EC50 hRORg) and at mouse RORγ (read-out: LUC EC50 mRORg) was < 3 µM in each case.

Regarding `Cc1ccc(NC(=O)[C@H]2CN(C(=O)CN(C)C)C[C@@H]2c2nnc([C@H]3C[C@@H](CC(C)C)C3)n2C2CC2)c(C)c1` [Example F-657], the EC50 at human RORγ (read-out: LUC EC50 hRORg) was > 3 µM; at mouse RORγ (read-out: LUC EC50 mRORg), < 3 µM.

(Values after patent US20160137639A1, “TRIAZOLE-ISOXAZOLE COMPOUND AND MEDICAL USE THEREOF” (JAPAN TOBACCO INC., priority 2012, published 2016).)
